{"source": "patent US9233090B2", "about": "“Cysteine and food intake” (Nestec S.A., priority 2010, dated 2016)", "type_in_all_cases": "in vivo, rat", "key": {"old rats [1]": {"tested_on": "old rats", "experiment": "Survival of old rats fed supplemented diets (Kaplan-Meier, log-rank test)", "details": "male Wistar rats, supplemented diet from age 21 months for 14 weeks; log-rank test=0.054, P=0.816", "from_the_text": "(§1) A cohort of male Wistar rats born and breed in a non-specific-pathogen-free animal facility (Unité de Nutrition Comparée, INRA Theix) was used for the study. When rats were 18 month old they were weighted monthly to evaluate their body weight change and blood was sampled in order to quantify inflammatory markers (acute phase proteins: α2-macroglobulin and fibrinogen). At the age of 21 months, rats were divided in two groups matched for body weight, body weight loss, and inflammatory status. Rats were fed with supplemented diets, starting at the age of 21 months and for 14 weeks. The cysteine diet consisted in the commercial pelleted diet A04 (SAFE/UAR, Scientific Animal Food and Engineering, Villemoisson-sur-Orge, France) supplemented with 4.0 g of L-cysteine (Sigma) per kg, and the control diet was supplemented with 2.9 g of L-alanine (Jerafrance) per kg (iso-nitrogenous diets). Experimental diets have been prepared at the Unite Préparation Aliments Expérimentaux, INRA Jouy-en-Josas.\nSurvival curves were generated by Kaplan-Meier method (FIG. 2) and compared by the log-rank test in order to analyze the effect of cysteine supplementation on mortality."}, "old rats [2]": {"tested_on": "old rats", "experiment": "Food intake of old rats fed supplemented diets for 14 weeks", "details": "for decrease in food intake per week: male Wistar rats, supplemented diet from age 21 months for 14 weeks, linear regression", "from_the_text": "as §1\nFood intake (FIG. 4) decreased with time and was lower for the alanine diet."}, "[3]": {"experiment": "Body weight of old rats fed supplemented diets", "details": "for Final BW: body weight at end of supplementation; for Initial BW: body weight at start of supplementation (baseline), age 21 months; for BW change: rat, in vivo", "from_the_text": "as §1\nThe decrease accelerated at the end of the experiment since body weights of the two last weeks were different from each of the previous ones."}, "[4]": {"experiment": "Skeletal muscle and organ weights of old rats fed supplemented diets", "details": "for Colon weight / EDL weight / Gastrocnemius weight / Kidneys weight / Liver weight / Small intestine weight / Soleus weight / Tibialis weight: end of supplementation", "from_the_text": "as §1"}}, "data": [{"molecule": "N[C@@H](CS)C(=O)O", "note": "[Cysteine, L-cysteine]", "values": [{"measurement": "mortality rate", "setting": "old rats [1]", "result": "did not change"}, {"measurement": "effect on decrease in food intake associated with aging", "setting": "old rats [2]; 4 g cysteine per kg supplemented diet, rats about 22.5 months old", "result": "blunts the decrease in food intake"}, {"measurement": "decrease in food intake per week", "setting": "old rats [2]", "result": "unchanged"}, {"measurement": "Final BW", "setting": "[3]", "result": "613 ± 12", "unit": "g"}, {"measurement": "Initial BW", "setting": "[3]", "result": "661 ± 10", "unit": "g"}, {"measurement": "BW change", "setting": "[3]", "result": "−6.27 ± 1.18", "unit": "%/13 wk"}, {"measurement": "liver weight compared with control rats", "setting": "[4]; cysteine supplemented rats vs alanine control", "result": "higher liver weight than control rats"}, {"measurement": "Colon weight", "setting": "[4]", "result": "2.76 ± 0.07", "unit": "g"}, {"measurement": "EDL weight", "setting": "[4]", "result": "228 ± 4", "unit": "mg"}, {"measurement": "Gastrocnemius weight", "setting": "[4]", "result": "2.51 ± 0.04", "unit": "g"}, {"measurement": "Kidneys weight", "setting": "[4]", "result": "4.31 ± 0.17", "unit": "g"}, {"measurement": "Liver weight", "setting": "[4]", "result": "20.0 ± 0.4", "unit": "g"}, {"measurement": "Small intestine weight", "setting": "[4]", "result": "12.0 ± 0.2", "unit": "g"}, {"measurement": "Soleus weight", "setting": "[4]", "result": "178 ± 4", "unit": "mg"}, {"measurement": "Tibialis weight", "setting": "[4]", "result": "889 ± 18", "unit": "mg"}]}, {"molecule": "C[C@H](N)C(=O)O", "note": "[Alanine, L-alanine, reference compound]", "values": [{"measurement": "decrease in food intake per week", "setting": "old rats [2]", "result": 0.96, "unit": "% per week"}, {"measurement": "Final BW", "setting": "[3]", "result": "595 ± 13", "unit": "g"}, {"measurement": "Initial BW", "setting": "[3]", "result": "657 ± 10", "unit": "g"}, {"measurement": "BW change", "setting": "[3]", "result": "−7.03 ± 1.60", "unit": "%/13 wk"}, {"measurement": "Colon weight", "setting": "[4]", "result": "2.68 ± 0.06", "unit": "g"}, {"measurement": "EDL weight", "setting": "[4]", "result": "222 ± 4", "unit": "mg"}, {"measurement": "Gastrocnemius weight", "setting": "[4]", "result": "2.51 ± 0.04", "unit": "g"}, {"measurement": "Kidneys weight", "setting": "[4]", "result": "4.32 ± 0.19", "unit": "g"}, {"measurement": "Liver weight", "setting": "[4]", "result": "18.4 ± 0.5", "unit": "g"}, {"measurement": "Small intestine weight", "setting": "[4]", "result": "11.4 ± 0.3", "unit": "g"}, {"measurement": "Soleus weight", "setting": "[4]", "result": "177 ± 3", "unit": "mg"}, {"measurement": "Tibialis weight", "setting": "[4]", "result": "888 ± 16", "unit": "mg"}]}]}
